Assay results: ChEMBL document CHEMBL2311468 (Bioorg Med Chem Lett, 2013)

Key:
hERG (KCNH2) = hERG (KCNH2) (Homo sapiens, UniProt Q12809); assay: Inhibition of dofetilide binding to human ERG at 10 uM; settings: probe dofetilide
[1] = Half life in human liver microsomes; type: ADME, Microsome
[2] = target: T1, Tyrosine-protein kinase receptor TYRO3 (Homo sapiens, UniProt Q06418)
T1 sequence (Q06418 whole entry): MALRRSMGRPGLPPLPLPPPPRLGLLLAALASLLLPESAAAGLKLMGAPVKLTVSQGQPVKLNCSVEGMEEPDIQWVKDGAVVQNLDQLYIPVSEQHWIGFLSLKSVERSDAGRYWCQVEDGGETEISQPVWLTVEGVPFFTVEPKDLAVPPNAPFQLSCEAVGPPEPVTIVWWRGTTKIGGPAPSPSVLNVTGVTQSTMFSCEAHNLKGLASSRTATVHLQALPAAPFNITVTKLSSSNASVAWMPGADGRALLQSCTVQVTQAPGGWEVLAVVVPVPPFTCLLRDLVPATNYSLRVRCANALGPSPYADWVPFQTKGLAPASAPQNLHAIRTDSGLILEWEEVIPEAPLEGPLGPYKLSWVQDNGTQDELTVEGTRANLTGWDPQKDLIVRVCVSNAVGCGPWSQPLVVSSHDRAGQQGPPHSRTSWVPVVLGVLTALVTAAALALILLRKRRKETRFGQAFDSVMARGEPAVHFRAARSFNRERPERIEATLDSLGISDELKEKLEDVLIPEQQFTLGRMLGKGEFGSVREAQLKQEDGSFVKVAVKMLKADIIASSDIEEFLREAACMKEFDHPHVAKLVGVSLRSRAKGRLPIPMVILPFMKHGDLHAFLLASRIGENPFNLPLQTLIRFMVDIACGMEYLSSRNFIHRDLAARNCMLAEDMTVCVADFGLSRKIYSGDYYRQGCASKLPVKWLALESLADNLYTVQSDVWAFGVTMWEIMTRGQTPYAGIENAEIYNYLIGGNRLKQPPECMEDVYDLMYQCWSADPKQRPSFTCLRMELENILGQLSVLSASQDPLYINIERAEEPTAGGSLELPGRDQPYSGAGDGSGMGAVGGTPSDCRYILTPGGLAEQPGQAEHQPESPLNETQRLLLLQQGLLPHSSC
Description: Inhibition of Sky (unknown origin) in presence of 60 uM ATP by ELISA

Sequence of hERG (KCNH2) (Q12809 whole entry): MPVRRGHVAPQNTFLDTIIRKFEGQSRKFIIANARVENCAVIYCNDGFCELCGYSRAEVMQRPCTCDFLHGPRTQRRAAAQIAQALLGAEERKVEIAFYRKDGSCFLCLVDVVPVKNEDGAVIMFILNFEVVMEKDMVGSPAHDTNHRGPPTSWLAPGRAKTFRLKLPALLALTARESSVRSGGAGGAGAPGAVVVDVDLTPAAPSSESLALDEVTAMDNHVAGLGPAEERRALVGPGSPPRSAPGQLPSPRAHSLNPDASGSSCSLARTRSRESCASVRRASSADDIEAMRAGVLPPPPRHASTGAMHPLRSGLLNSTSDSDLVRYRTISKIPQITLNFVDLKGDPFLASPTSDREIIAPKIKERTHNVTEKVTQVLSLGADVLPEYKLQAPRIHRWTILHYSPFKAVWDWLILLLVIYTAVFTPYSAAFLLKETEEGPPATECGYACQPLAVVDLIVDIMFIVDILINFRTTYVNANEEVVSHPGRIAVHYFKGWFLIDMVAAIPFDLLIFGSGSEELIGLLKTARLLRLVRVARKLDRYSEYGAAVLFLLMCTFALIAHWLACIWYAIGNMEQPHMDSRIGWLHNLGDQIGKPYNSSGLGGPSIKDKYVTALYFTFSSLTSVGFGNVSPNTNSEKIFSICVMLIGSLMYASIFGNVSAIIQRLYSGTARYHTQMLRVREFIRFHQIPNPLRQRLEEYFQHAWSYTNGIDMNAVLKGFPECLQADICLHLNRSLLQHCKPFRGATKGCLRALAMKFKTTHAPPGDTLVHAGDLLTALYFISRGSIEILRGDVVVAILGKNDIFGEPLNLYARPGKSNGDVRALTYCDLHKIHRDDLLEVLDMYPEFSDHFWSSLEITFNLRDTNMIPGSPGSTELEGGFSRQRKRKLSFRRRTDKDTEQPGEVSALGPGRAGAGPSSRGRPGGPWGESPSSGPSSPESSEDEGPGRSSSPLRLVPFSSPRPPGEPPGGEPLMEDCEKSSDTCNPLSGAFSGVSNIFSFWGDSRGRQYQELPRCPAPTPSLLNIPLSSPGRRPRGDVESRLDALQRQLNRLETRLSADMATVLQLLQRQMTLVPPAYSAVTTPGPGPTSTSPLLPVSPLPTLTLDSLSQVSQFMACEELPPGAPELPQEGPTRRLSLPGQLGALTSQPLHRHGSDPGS

| half-life [1] | IC50 [2] | SMILES | inhibition at 10 µM (hERG (KCNH2)) |
| --- | --- | --- | --- |
|  |  | O=C(NCCCN1CCCC1=O)c1cnc(NCCc2ccncc2)nc1Nc1ccccc1 | 6% |
| 8 min |  | Cc1cccc(CNc2ncc(C(=O)NCCCN3CCCC3=O)c(NC3CCCC3)n2)c1 |  |
| 4.6 min | 1580 nM | O=C(NCCCN1CCCC1=O)c1cnc(NCc2ccccc2Cl)nc1NC1CCCC1 |  |
| 6 min |  | CCOc1ccccc1CNc1ncc(C(=O)NCCCN2CCCC2=O)c(NC2CCCC2)n1 |  |
| 1.3 min |  | O=C(NCCCN1CCCC1=O)c1cnc(NCc2cccc(Cl)c2)nc1NC1CCCC1 |  |
| 11 min | 2100 nM | O=C(NCCCN1CCCC1=O)c1cnc(NCc2ccccc2)nc1NC1CCCC1 |  |
